Assay results: US20050209157A1, “Short bioactive peptides and methods for their use” (priority 2001, published 2005)
“Also recorded” adds a separate entry of the source. Where two headings read alike, the source gives them in different places. No end group written: not given here.

Experiments:
[1] = tested on: Stapholococcus aureus ATCC 25923; assay: Antimicrobial assay I, modified protocol (tryptic soy broth), MBC; conditions: minimum bactericidal concentration, Table 4
[2] = tested on: fungal; assay: Presently preferred antifungal peptides, selected from the MIC/MBC data; type: cell-based; conditions: X = preferred
Text: The peptide's “length” is the number of amino acid residues in the sequence.

[3] = tested on: Candida albicans ATCC 10231; assay: Antimicrobial assay I, modified protocol (tryptic soy broth), MFC; conditions: minimum fungicidal concentration, Table 4
Method: (§2) The preparation of all media, stock solutions, and dilutions took place in a laminar flow hood to prevent contamination. Bacterial cells were freshly grown on antibiotic medium 2 agar slants (pH 7.0 at 25° C.). Bacteria were suspended and diluted in antibiotic medium 3 to about 10^4 cfu/ml and used as the inoculum. Sample solutions (100 μl/well) were added to plates according to the plate layout. Inoculum (100 μl/well) was added to achieve a final concentration of 5×10^3 cfu/ml. Negative controls received 100 μl saline and 100 μl growth medium. Positive controls received 100 μl saline and 100 μl inoculum. Bacterial plates were incubated at 37° C. for 24 hours.
(§3) However, the data for Table 4 were obtained with a modified protocol wherein the medium was tryptic soy broth, inocolum strength was approximately 10^4 CFU per ml, and values determined were minimum bactericidal concentrations (MBC) or minimum fungicidal concentrations (MFC).
(§4) MBC or MFC values are in μg/mL. E. coli is Escherichia coli ATCC accession number 25922; P. aerug is Pseudomonas aeruginosa ATCC accession number 27853, S. aur. is Stapholococcus aureus ATCC accession number 25923; Candida is Candida albicans ATCC accession number 10231.

[4] = tested on: Pseudomonas aeruginosa ATCC 27853; assay: Antimicrobial assay I, modified protocol (tryptic soy broth), MBC; conditions: minimum bactericidal concentration, Table 4
[5] = tested on: Escherichia coli ATCC 25922; assay: as above; conditions: minimum bactericidal concentration, Table 4
Method: as §2, §3, §4

[6] = tested on: Pseudomonas aeruginosa ATCC 9027; assay: Antimicrobial assay I, MIC by OD measurement; type: cell-based
[7] = in vitro; conditions: human, WI38 normal lung fibroblast cells, WI-38 LD50, Table 26, valine substitution
[8] = in vitro; type: cell-based, human; conditions: human, human red blood cells
[9] = tested on: WI38
[10] = tested on: yeast (Saccharomyces cerevisiae); assay: Antimicrobial assay I, yeast assay in RPMI 1640; type: cell-based; conditions: RPMI 1640 media
[11] = tested on: hairless rat skin burn wound; assay: In vivo wound healing, TCA chemically induced skin burn wound
Text: The hairless rat was chosen as a suitable test model. Female hairless rats of 100 to 150 grams weight and 8 to 12 weeks age were used in the study.
As an alternative, 70% trichloroacetic (TCA) dissolved in 70% ethanol was employed to induce the dermal erosion patches. […] As the chemical burn agent, the TCA treatment inflicted on the rats far less trauma and mortality than occurred with the Phenol model.
The experimental Protocol procedure steps were as follows: • 1. The animal was anesthetized (40 mg/kg Phenobarbital). • 2. Color photographs of the animal's back (with six separate peels) were taken before each treatment and daily thereafter. • 3. Rat skin surface was prepared by wiping with 70% ethanol. Filter paper discs (1.1 cm diameter) were soaked in 70% TCA/ethanol. • 4. The discs were placed on the back of the hairless rat for 30 minutes [6 disks providing for 2 control (no peptide treatment) disks and 4 disks for peels to receive peptide treatment.] • 5. After a 30 minute burn the discs were removed. Twenty four hours later, different peptide solutions (1500 ppm in saline) were applied to four peels, and saline was applied to the two control peels. • 6. Peptide solutions (and saline for the controls) were applied to the six wounds with a soft brush each day thereafter. • 7. It took approximately one month for the wounds to heal (complete skin closure with stabilized epidermis), after which the animal was sacrificed. • 8. The treated skin was harvested, section stained with trichrome, and mounted on slides.
The percentage of wound closure for each peel (six sites) was measured each day until the animal was sacrificed. The percentage closure was determined by measuring on the animal photographs the area of the remaining scab relative to the area of the initial scar after the burn. These measurements were made by digitizing and analyzing the peels using the Sigma Plot ProScan 4 program.
This provided a measure of the post-TCA burn treatment of the inflammatory response in each peel site.
The extent of epidermal thickening (hyperkeratosis) at each site was also determined by measurement with the Sigma Plot program applied to the stained section slides of the various wound areas and the normal untreated skin (control) surrounding the peels. At magnifications of 100× to 320×, the microphotographs of the color slides provided a powerful tool for such quantification of the extent of hyperkeratosis evident in each peel.
Treatment of the section slides with selective stains produced identifiable evidence of the presence of both leukocyte and fibroblast cells in the wound areas. This was also quantified by the Sigma Plot program.
The above described animal model and protocols were employed in the testing of approximately 20 of the peptides listed in Table 48 (and other peptides for comparison) as preferred FLAK peptides for wound healing.

[12] = tested on: Staphylococcus aureus ATCC 6538; assay: Antimicrobial assay I, MIC by OD measurement; type: cell-based; conditions: 37° C. for 24 hours, absorbance 620 nm
[13] = tested on: HeLaS3; assay: Anti-cancer assay, MTT, LD50; type: cell-based; conditions: 24 hours with peptide, cervical carcinoma
Text: (§1) Numbers are LD50 values (μg/mL).

[14] = tested on: BMKC; assay: Anti-cancer assay, MTT, LD50; type: cell-based; conditions: BMKC cloned melanoma line, 24 hours with peptide
Text: as §1

[15] = tested on: SW480; assay: Anti-cancer assay, MTT, LD50; type: cell-based; conditions: SW480 colon adenocarcinoma line, 24 hours with peptide
Text: as §1

[16] = tested on: PC3; assay: Anti-cancer assay, MTT, LD50; type: cell-based; conditions: 24 hours with peptide, prostate adenocarcinoma
Text: as §1

[17] = tested on: H1299; assay: Anti-cancer assay, MTT, LD50; type: cell-based; conditions: 24 hours with peptide, lung large cell carcinoma
Text: as §1

[18] = tested on: MCF7; assay: Anti-cancer assay, MTT, LD50; type: cell-based; conditions: MCF7 breast adenocarcinoma line, MTT, 24 hours with peptide
Text: as §1

[19] = tested on: human red blood cells (RBC); assay: in vitro; type: cell-based; conditions: hemolytic assay, concentration at 50% hemolysis, 1 hour at 37° C.
[20] = pH 7, Table 26, valine substitution, read-out: Hemolysis RBC LD50
[21] = rat model, TCA burn treated by peptide

| Substance | MBC S. aur A.25923 [1] | Anti-fungal (preferred peptide) [2] | MFC Candida A.10231 [3] | MBC P. aerug A.27853 [4] | MBC E. coli A.25922 [5] | other results |
| --- | --- | --- | --- | --- | --- | --- |
| FKLAFKLAKKAFL-NH2 [compound 122] | 25 µg/mL | X (Preferred antifungal peptides can be selected as having MIC or MBC values of less than or equal to about 25 μg/ml) | 15 µg/mL | 30 µg/mL | 30 µg/mL |  |
| FAKLLAKALKKAL-NH2 [compound 102] | 25 µg/mL | X (Preferred antifungal peptides can be selected as having MIC or MBC values of less than or equal to about 25 μg/ml) | 15 µg/mL | 30 µg/mL | 25 µg/mL |  |
| VAKLLAKLAKKVL-NH2 [compound 154] | >250 µg/mL | X (Preferred antifungal peptides can be selected as having MIC or MBC values of less than or equal to about 25 μg/ml) | 25 µg/mL | 100 µg/mL | 50 µg/mL | P. aerug (MIC) [6]: 100 µg/mL; CC50 at 24 h [7]: 110 µg/mL; HC50 at 1 h [8, 20]: 870 µg/mL; HC50 at 1 h ([8]; pH 7, Table 27, read-out: Hemolysis (LD50)): 450 µg/mL; WI38 LD50 ([9]; Table 27): 110 µg/mL |
| KYKKALKKLAKLL-NH2 [compound 146] | 75 µg/mL | X (Preferred antifungal peptides can be selected as having MIC or MBC values of less than or equal to about 25 μg/ml) | 10 µg/mL | >250 µg/mL | 10 µg/mL |  |
| FALKALKKAL-NH2 [compound 170] | 150 µg/mL | X (Preferred antifungal peptides can be selected as having MIC or MBC values of less than or equal to about 25 μg/ml) | 25 µg/mL | >250 µg/mL | 25 µg/mL |  |
| FALALKALKKLKKALKKAL-NH2 [compound 27] | 8 µg/mL | X (Preferred antifungal peptides can be selected as having MIC or MBC values of less than or equal to about 25 μg/ml) | >50 µg/mL | 8 µg/mL | 10 µg/mL |  |
| FALALKALKKL-NH2 [compound 165] | 25 µg/mL | X (Preferred antifungal peptides can be selected as having MIC or MBC values of less than or equal to about 25 μg/ml) | 10 µg/mL | 25 µg/mL | 10 µg/mL | CC50 at 24 h [7]: 850 µg/mL; HC50 at 1 h [8, 20]: 350 µg/mL |
| FAKLLAKALKKL-NH2 [compound 103] | >50 µg/mL | X (Preferred antifungal peptides can be selected as having MIC or MBC values of less than or equal to about 25 μg/ml) | 25 µg/mL | 30 µg/mL | 30 µg/mL |  |
| MPKEKVFLKIEKMGRNIRN-NH2 [P107, reference compound] |  |  |  |  |  | yeast (MIC or MFC) [10]: > (> indicates greater than 200 μg/mL); rate of wound closure ([11]; hairless rat, full wound closure at 26 days): small advantage in rate of wound closure over the other peptides and no peptide; ability to limit post-TCA burn inflammatory responses ([11]; hairless rat, peptide solutions 1500 ppm in saline, topical daily): superior in this respect; hyperkeratosis (epidermal thickening) ([11]; hairless rat, peptide solutions 1500 ppm in saline, topical daily, listed as SEQ ID NO:71): lowest evidence of hyperkeratosis (epidermal thickening); also recorded: substantially no hyperkeratosis as compared to the TCA burn untreated control; Epidermal thickening [11, 21]: 33 % of control (TCA only); Fibroblast cells in test area [11, 21]: 420 % of normal skin; Inflammatory response area [11, 21]: 0 % of healed scar; Leukocyte cells in test area [11, 21]: 400 % of normal skin; Wound closure ([11]; rat model, TCA burn treated by peptide, 26 days): 100 % of initial wound; staph6538 (MIC) [12]: > (> indicates greater than 200 μg/mL); paerug9027 (MIC) ([6]; 37° C. for 24 hours, absorbance 620 nm): > (> indicates greater than 200 μg/mL); HeLaS3 LD50 [13]: > (> indicates greater than 1000); LD50 BMKC [14]: > (> indicates greater than 1000); LD50 SW480 [15]: > (> indicates greater than 1000); PC3 LD50 [16]: > (> indicates greater than 1000); H1299 LD50 [17]: > (> indicates greater than 1000); LD50 MCF7 [18]: > (> indicates greater than 1000); LD50 [19]: > (> indicates greater than 1000); WI38 LD50 ([9]; MTT, 24 hours with peptide, normal fibroblast line): > (> indicates greater than 1000); LD50 WI38 ([9]; WI38 normal lung fibroblast line, MTT, 24 hours with peptide): > (> indicates greater than 1000) |
| FALALKLAKKAL-NH2 [compound 167] | 10 µg/mL | X (Preferred antifungal peptides can be selected as having MIC or MBC values of less than or equal to about 25 μg/ml) | 25 µg/mL | >250 µg/mL | 25 µg/mL |  |
| FAKKLAKKLAKAL-NH2 [compound 74] | >55 µg/mL | X (Preferred antifungal peptides can be selected as having MIC or MBC values of less than or equal to about 25 μg/ml) | >55 µg/mL | 50 µg/mL | >55 µg/mL |  |
